According to US8933270B2, “Use of docasatrienes, resolvins, and their stable analogs in the treatment of airway diseases and asthma” (The Brigham and Women's Hospital, Inc., priority 2002, dated 2015):

Legend:
[1] = test system: airway leukocyte accumulation; assay: OVA sensitization and aerosol challenge: lung histology and BAL leukocytes; format: in vivo
Procedure: To determine if PD1 and Resolvin E1 had properties of a counter-regulatory mediator during airway inflammation, physiologically relevant quantities (2, 20 or 200 ng) were administered by intravenous injection to allergen sensitized animals just prior (30 min) to aerosol challenge on 4 consecutive days. […] In conjunction with decreased airway inflammation, levels of the counter-regulatory eicosanoid LXA4 were also […] in the presence of PD1 (data not shown).
(§1) Five to seven week old male FvB mice (Charles River Laboratories, Wilmington, Mass.) were housed in isolation cages under viral antibody-free conditions. Mice were fed a standard diet (Laboratory Rodent Diet 5001, PMI Nutrition International, Richmond, Ind.) that contained no less than 4.5% total fat with 0.26% omega-3 fatty acids and <0.01% C20:4. After Harvard Medical Area IRB approval (Protocol #02570), mice were sensitized with intraperitoneal injections of ovalbumin (OVA) (Grade III; Sigma Chemical Co., St. Louis, Mo.) (10 μg) plus 1 mg aluminum hydroxide (ALUM) (J. T. Baker Chemical Co.; Phillipsburg, N.J.) as adjuvant in 0.2 ml PBS on days 0 and 7. On days 14, 15, 16 and 17, the mice received PD1 (2, 20 or 200 ng), Resolvin E1 (200 ng) (products of biogenic synthesis (Hong, Gronert et al. 2003)), or PBS with 1.6 mM CaCl2 and 1.6 mM MgCl2 (0.1 ml) by intravenous injection 30 min prior to an aerosol challenge containing either PBS or 6% OVA for 25 min/day. On day 18, 24 h after the last aerosol challenge, airway responsiveness to aerosolized methacholine (0, 20, 50 and 75 mg, 10 sec) was measured, bilateral bronchoalveolar lavage (BAL) (2 aliquots of 1 ml PBS plus 0.6 mM EDTA) was performed or tissues were harvested for histological analysis. Lung resistance was measured using a Flexivent ventilator (SciReq, Montreal, Quebec). Resistance was measured as a function of time for each animal, and peak and average values for each dose of methacholine were recorded. No BAL or histological analysis was performed on those animals undergoing airway hyper-responsiveness or lipid extraction studies.
(§2) Tissue morphometry was performed by a member (K. Haley) of the Lung Histopathology Core Laboratory at Brigham and Women's Hospital who was blinded to the experimental conditions prior to histological analyses. Three fields per slide were examined at 200× magnification for vessels, large airways and alveoli with EOS counted at 400× magnification in randomly assigned fields. Vessels were identified by perivascular smooth muscle, and large airways were identified by at least ½ their diameter either cuboidal or columnar epithelia. Measurement of inflammatory mediators was determined in cell-free BAL fluid (2000 g, 10 min) by sensitive and specific ELISAs, in tandem, for interleukin-5 (IL-5), IL-12, IL-13, PGD2 (R&D Systems, Minneapolis, Minn.), cysteinyl LTs, (Cayman Chemical Co, Ann Arbor, Mich.), and LXA4 (Neogen, Lexington, Ky.). Cells in BALF were resuspended in PBS, enumerated by hemocytometer, and concentrated onto microscope slides by cytocentrifuge (STATspin) (265 g). Cells were stained with a Wright-Giemsa stain (Sigma Chemical Co.) to determine leukocyte differentials (after counting ≧200 cells).

[2] = test system: BALF cytokines and lipid mediators; assay: OVA model: inflammatory mediators in BAL fluid by ELISA; format: in vivo, FvB mice
From the text: as §1, §2

PMN infiltration = assay: Zymosan A-induced peritonitis; format: in vivo, FVB mice; conditions: i.v. bolus before zymosan A, lavage at 2 h
Procedure: FIG. 5 depicts Bioimpact properties of omega-3-derived Resolvins. A) Human glioma cells: Inhibition of TNF-stimulated IL-1β transcripts DBTRG-05MG cells 10^6/ml were stimulated with 50 ng/ml of human recombinant TNFα for 16 hours to induce expression of IL-1β transcripts. Concentration dependence with COX-2 products: 17-HDHA (n), 13-HDHA (l)and di-/tri-HDHA (n). […] (insets) Results are representative of RT-PCR gels of MG cells exposed to 100 nM of 13-HDHA or 17-HDHA and graphed after normalization of the IL-1β transcripts using GAPDH. B) Influence of eicosanoids and docosanoids on fMLP-induced neutrophil migration across micovascular endothelial monolayers Neutrophils (1×10^6 cells/monolayer) were exposed to vehicle containing buffer, or indicated concentrations of aspirin-triggered LXA4 analog (closed diamonds) 5S,12,18R-triHEPE (closed squares), 17R-HDHA (closed circles) or 13-HDHA (closed triangles) for 15 minutes at 37° C. Neutrophils were then layered on HMVEC monolayers and stimulated to transmigrate by a 10^−8 M fMLP gradient for 1 hr at 37° C. Transmigration was assessed by quantitation of the neutrophil marker myeloperoxidase. Results are presented as mean±SEM number of PMN (n=8-12 monolayers per condition). C) Reduction of PMN in murine peritonitis and skin pouch peritonitis: Compounds (100 ng in 120 μL sterile saline) were injected by intravenous bolus injection into the mouse tail vein and followed by 1 ml zymosan A (1 mg/ml) into the peritoneum. Peritoneal lavages were collected (2 h) and cell types were enumerated.
Human PMN transendothelial migration was quantitated by monitoring myeloperoxidase (MPO) an azurophilic granule marker as in (34, 37). Inflammatory exudates were initiated with intrapouch injection of recombinant mouse TNFα (100 ng/pouch; R&D Systems) into dorsal air pouches (10) of 6-8 wk male FVB mice fed laboratory rodent diet 5001 (Lab Diet, Purina Mills) containing less than 0.25% arachidonic acid, 1.49% EPA and 1.86% DHA followed by ASA (500 μg) at 3.5 h and 300 μg DHA/pouch at 4 h post-TNFα injection. At 6 h (within the resolution phase), pouches were lavaged (3 ml saline) and exudate cells were enumerated Inhibition of TNFα stimulated (100 ng/pouch) PMN infiltration with i.v. tail injection of either 17R-HDHA (as prepared with COX-2 vide infra), 5S,12,18R-HEPE, or a 15-epi-LXA4 analog were determined with pouch lavages taken at 4 h. Peritonitis was performed using 6 to 8-week-old FVB male mice (Charles River Laboratories) fed laboratory Rodent Diet 5001 (Purina Mills) that were anesthetized with isoflurane, and compounds to be tested (125 μl) were administered intravenously. Zymosan A in 1 ml (1 mg/ml) was injected ˜1-1.5 min later in the peritoneum. Each test compound (100 ng/incubation, i.e. 17R-HDHA in ethanol) or vehicle alone was suspended in ˜5 μl and mixed in sterile saline 120 μl. Two hours after the intraperitoneal injections, and in accordance with the Harvard Medical Area Standing Committee on Animals protocol #02570, mice were euthanized and peritoneal lavages rapidly collected for enumeration.
Peritonitis was induced in 6 to 8 week old male FVB mice by peritoneal injection of 1 mg Zymosan A. Compounds 4,17S and 10,17S-diHDHA were injected by intravenous bolus injection, 1.5 minutes before Zymosan A treatment. Two hours after induction of peritonitis, rapid peritoneal lavages were collected and cell type enumeration was performed.

[3] = test system: airway hyper-responsiveness; assay: OVA model: airway responsiveness to inhaled methacholine (lung resistance); format: in vivo, FvB mice; conditions: PD1 0-200 ng; methacholine 0, 20, 50, 75 mg
Procedure: Because increased airway reactivity is a diagnostic hallmark of asthma, it was also determined if PD 1 regulated airway hyper-responsiveness to inhaled methacholine. After allergen sensitization and aerosol challenge in the presence of PD 1 (0-200 ng), animals were ventilated and exposed (10 sec) to increasing concentrations of inhaled methacholine (0, 20, 50 and 75 mg).
Five to seven week old male FvB mice (Charles River Laboratories, Wilmington, Mass.) were housed in isolation cages under viral antibody-free conditions. Mice were fed a standard diet (Laboratory Rodent Diet 5001, PMI Nutrition International, Richmond, Ind.) that contained no less than 4.5% total fat with 0.26% omega-3 fatty acids and <0.01% C20:4. […] On day 18, 24 h after the last aerosol challenge, airway responsiveness to aerosolized methacholine (0, 20, 50 and 75 mg, 10 sec) was measured, bilateral bronchoalveolar lavage (BAL) (2 aliquots of 1 ml PBS plus 0.6 mM EDTA) was performed or tissues were harvested for histological analysis. Lung resistance was measured using a Flexivent ventilator (SciReq, Montreal, Quebec). Resistance was measured as a function of time for each animal, and peak and average values for each dose of methacholine were recorded. […]

[4] = i.v. 30 min before aerosol challenge on 4 days

## CC/C=C\C[C@H](O)\C=C/C=C/C=C/C(O)C/C=C\C/C=C\CCC(=O)O (stereo in doubt) [PD1, 10,17S-dihydroxy-4,7,15,19-cis-11,13-trans-docosahexaenoic acid]
[1]; 10,17-DT 20 ng and 200 ng, Resolvin E1 200 ng
  eosinophil and lymphs (FIG. 25): reduced
[1]; PD1 2, 20 or 200 ng, Resolvin E1 200 ng i.v.
  total leukocytes, EOS and Lymphs in BAL fluid: decreased
[1]; PD1 treatment, nanogram quantities i.v.
  behavioral or physical signs of toxicity: No behavioral or physical signs of toxicity
[1]; i.v.
  lowest dose reducing TH2 lymphocyte activation / eosinophil recruitment: 2 ng
[1]; [4]
  EOS tissue infiltration around vessels, large and peripheral airways (morphometry): significant decreases
  edema and epithelial hyperplasia: markedly decreased
[1]; i.v. 30 min before aerosol challenge on 4 days, vs vehicle
  eosinophils and lymphocytes in peribronchiolar regions and airspaces: substantially less
[2]; BAL fluid
  IL-12 levels: no significant effect
  allergen-induced increase in CysLTs: blocked allergen-induced increases
  allergen-induced increase in IL-13: blocked allergen-induced increases
  allergen-induced increase in PGD2: blocked allergen-induced increases
[2]; IL-13 and CysLT generation
  potency of inhibitory concentrations relative to the LX analog: 1 to 2 log orders
[2]; data not shown
  levels of LXA4: diminished
PMN infiltration; listed as 10,17S-docosatrienes
  inhibition of PMN/leukocyte infiltration: potent inhibition
PMN infiltration; listed as 10,17 di-HDHA
  inhibition of PMN/leukocyte infiltration: inhibited
[3]
  peak and average lung resistance in response to methacholine: decreased both peak and average lung resistance
